Test results: paper PMC9460261, “Need for a Standardized Translational Drug Development Platform: Lessons Learned from the Repurposing of Drugs for COVID-19” (Microorganisms, 2022)
Where a name gives a salt, the structure may show the parent alone. Read-outs that look alike come from different tables or passages of the source.

Assays:
[1] = tested on: SARS-CoV-2 in Human Airway Epithelia (HAE)
[2] = tested on: SARS-CoV-2 in A549-Dual hACE2-TMPRSS2 cells; settings: for EC50: read-out: A549-Dual hACE2-TMPRSS2 cells Average EC50
[3] = tested on: SARS-CoV-2 in A549-Dual hACE2-TMPRSS2 cells; experiment: microbe, parasite or virus in culture; settings: Severe acute respiratory syndrome coronavirus 2, read-out: A549-Dual hACE2-TMPRSS2 cells Average EC50

Row | Compound | Concentration showing activity / complete inhibition of viral replication in HAE [1] | Activity In Vitro; Potency EC50 or IC50 < 10 µM; A549 Cells [2] | EC50 [3] | Activity Ex Vivo Human Airway Epithelia (HAE) [1] | EC50 [2] | Toxicity observed (^T), A549 Cells [2] | A549-Dual hACE2-TMPRSS2 cells Average EC50 [2]
1 | CC(=O)Oc1ccccc1C(=O)Nc1ncc([N+](=O)[O-])s1 [Nitazoxanide, nitazoxanide] | 5 µM | No (Potency EC50 or IC50 < 10 µM) | > 100 µM |  |  |  | 
2 | OC(c1cc(C(F)(F)F)nc2c(C(F)(F)F)cccc12)C1CCCCN1 (stereo not drawn) [Mefloquine, mefloquine] |  | No (Potency EC50 or IC50 < 10 µM) | > 50 µM | No |  |  | 
3 | bemnifosbuvir |  | No (Potency EC50 or IC50 < 10 µM) |  | No | > 50 µM |  | 
4 | COCCCC/C(=N\OCCN)c1ccc(C(F)(F)F)cc1 [Fluvoxamine maleate, fluvoxamine maleate] |  | No (key: Yes: Potency EC50 or IC50 < 10 µM; No: Potency EC50 or IC50 < 10 µM) | 39.9 µM | No |  |  | 
5 | CC(=O)CCCCn1c(=O)c2c(ncn2C)n(C)c1=O [Pentoxyfilline, pentoxyfilline] |  | No (Potency EC50 or IC50 < 10 µM) | > 50 µM | No |  |  | 
6 | COC(=O)N[C@H](C(=O)N1CCC[C@H]1c1nc(-c2ccc(-c3ccc(-c4c[nH]c([C@@H]5CCCN5C(=O)[C@@H](NC(=O)OC)C(C)C)n4)cc3)cc2)c[nH]1)C(C)C [Daclatasvir, daclatasvir] |  | No (Potency EC50 or IC50 < 10 µM) | > 50 µM | No |  |  | 
7 | CC(C)C(=O)OC[C@H]1O[C@@H](n2ccc(NO)nc2=O)[C@H](O)[C@@H]1O [Molnupiravir, molnupiravir] | 10 µM | Yes (Potency EC50 or IC50 < 10 µM) | 3.6 µM | Yes |  |  | 
8 | CCCN(CCC)S(=O)(=O)c1ccc(C(=O)O)cc1 [Probenecid, probenecid] |  | No (Potency EC50 or IC50 < 10 µM) | > 50 µM | No |  |  | 
9 | Nc1c(Br)cc(Br)cc1CN[C@H]1CC[C@H](O)CC1 [Ambroxol, ambroxol] |  | No (Potency EC50 or IC50 < 10 µM) | > 50 µM | No |  |  | 
10 | Cc1c(O)cccc1C(=O)N[C@@H](CSc1ccccc1)[C@H](O)CN1C[C@H]2CCCC[C@H]2C[C@H]1C(=O)NC(C)(C)C [Nelfinavir, nelfinavir] | 10 µM | Yes (Potency EC50 or IC50 < 10 µM) | 3.2 µM | Yes |  | Yes ^T | 
11 | O=c1nc(NO)ccn1[C@@H]1O[C@H](CO)[C@@H](O)[C@H]1O [EIDD-1931] |  |  |  |  | 0.47 µM |  | 
12 | COc1cc2c(c(OC)c1OC)-c1ccc(OC)c(=O)cc1[C@@H](NC(C)=O)CC2 [Colchicine, colchicine] |  | Yes ^T (key: Yes: Potency EC50 or IC50 < 10 µM; No: Potency EC50 or IC50 < 10 µM) |  | No |  |  | 
13 | CCN(CC)Cc1cc(Nc2ccnc3cc(Cl)ccc23)ccc1O [Amodiaquine, amodiaquine] |  | No (Potency EC50 or IC50 < 10 µM) | > 50 µM | No |  |  | 
14 | CC(C)OC(=O)[C@H](C)N[P@](=O)(OC[C@H]1O[C@@H](n2ccc(=O)[nH]c2=O)[C@](C)(F)[C@@H]1O)Oc1ccccc1 [Sofosbuvir, sofosbuvir] |  | No (Potency EC50 or IC50 < 10 µM) | > 50 µM | No |  |  | 
15 | NC(=O)c1nc(F)c[nH]c1=O [Favipiravir, favipiravir] |  | No (Potency EC50 or IC50 < 10 µM) | > 100 µM | No |  |  | 
16 | CC1(C)C(=O)N(c2ccc(C#N)c(C(F)(F)F)c2F)C(=S)N1c1ccc(CCCc2ncco2)nc1 [Proxalutamide, proxalutamide] |  | No (Potency EC50 or IC50 < 10 µM) |  | No | > 50 µM |  | 
17 | COc1ccc2cc1Oc1ccc(cc1)C[C@H]1c3c(cc4c(c3Oc3cc5c(cc3OC)CCN(C)[C@@H]5C2)OCO4)CCN1C [Cepharanthine, cepharanthine] |  | No (Potency EC50 or IC50 < 10 µM) | > 50 µM | No |  |  | 
18 | CN(C)C(=O)COC(=O)Cc1ccc(OC(=O)c2ccc(NC(=N)N)cc2)cc1 [Camostat mesylate, camostat mesylate] | 10 µM | No (Potency EC50 or IC50 < 10 µM) | > 50 µM | Yes |  |  | 
19 | CC(C)/N=c1\cc2n(-c3ccc(Cl)cc3)c3ccccc3nc-2cc1Nc1ccc(Cl)cc1 [Clofazimine, clofazimine] |  | Yes (Potency EC50 or IC50 < 10 µM) | 2.4 µM | No |  | Yes ^T | 
20 | CC(C)(C)[C@H](NC(=O)C(F)(F)F)C(=O)N1C[C@H]2[C@@H]([C@H]1C(=O)N[C@H](C#N)C[C@@H]1CCNC1=O)C2(C)C [Nirmatrelvir, nirmatrelvir] | 1 µM | Yes (Potency EC50 or IC50 < 10 µM) |  | Yes |  |  | 
21 | COC(=O)N[C@H](C(=O)N[C@@H](Cc1ccccc1)[C@@H](O)CN(Cc1ccc(-c2ccccn2)cc1)NC(=O)[C@@H](NC(=O)OC)C(C)(C)C)C(C)(C)C [Atazanavir, atazanavir] |  |  | 24 µM |  |  |  | 
22 | ivermectin |  | Yes (Potency EC50 or IC50 < 10 µM) |  | Yes |  |  | +NA
23 | O=C(Nc1ncc([N+](=O)[O-])s1)c1ccccc1O [Tizoxanide, tizoxanide] |  |  | > 100 µM |  |  |  | 
24 | CNCCC(Oc1ccc(C(F)(F)F)cc1)c1ccccc1 (stereo not drawn) [Fluoxetine, fluoxetine] |  | No (key: Yes: Potency EC50 or IC50 < 10 µM; No: Potency EC50 or IC50 < 10 µM) |  | No |  |  | 
